The results in this text go back to US7803930B2, “Antisense modulation of apolipoprotein B-expression” (Isis Pharmaceuticals, Inc., priority 2002, dated 2010).

The series relates to human apolipoprotein B mRNA. Briefly: Inhibition of human apolipoprotein B mRNA levels in HepG2 cells, quantitative real-time PCR. The class given is cell-based. Particulars: HepG2 cells; for % inhibition of apolipoprotein B mRNA levels: normalized to untreated control, average of two experiments. The procedure, abridged: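 Apolipoprotein B transcript was quantified by one-step TaqMan RT-PCR, normalized to GAPDH or RiboGreen RNA, and expressed as percent inhibition against an untreated-sample standard curve. HepG2 cells were harvested 16-24 h after oligonucleotide exposure, which was delivered with 3.75 μg/mL Lipofectin over 4-7 h at 80% confluency.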
For orientation: Quantitative PCR measures a nucleic acid by following its amplification.

The mark [1] stands for this setting: 50 nm oligonucleotide, variable deoxy gap position.
Where [2] appears, read: 150 nm oligonucleotide, variable deoxy gap position.
Setting [3] is: Table 17 variable gap, 50 nM, averages from three experiments.
[4] abbreviates: Table 17 variable gap, 150 nM, averages from three experiments.

e = 2'-O-(2-methoxyethyl) (MOE); d = 2'-deoxy (DNA)

Turning to “308652 (antisense AGGTTACCAGCCACATGCAG; 7-10-3 2'-MOE gapmer, phosphorothioate, chemistry not fully specified) [compound 308652]”, the “% INHIB 50 nm” value under setting [1] is 73%. Also, the “% INHIB 150 nm” value under setting [2] is 95%.

As for “308653 (antisense GCCTCAGTCTGCTTCGCACC; 7-10-3 2'-MOE gapmer, phosphorothioate, chemistry not fully specified) [compound 308653]”, under setting [1], the “% INHIB 50 nm” value was determined as 73%. In addition, under setting [2], the “% INHIB 150 nm” value turned out to be 89%.

For “308654 (antisense GCCTCAGTCTGCTTCGCGCC; 8-10-2 2'-MOE gapmer, phosphorothioate, chemistry not fully specified) [compound 308654]”, the “% INHIB 50 nm” value under setting [3] was 81%. The “% INHIB 150 nm” value under setting [4] is 90%.

In the case of “308655 (antisense AGGTTACCAGCCACATGCAG; 8-10-2 2'-MOE gapmer, phosphorothioate, chemistry not fully specified) [compound 308655]”, the “% INHIB 50 nm” value under setting [1] is reported as 84%. The “% INHIB 150 nm” value under setting [2] stood at 83%.

As for “308656 (antisense GCCTCAGTCTGCTTCGCACC; 8-10-2 2'-MOE gapmer, phosphorothioate, chemistry not fully specified) [compound 308656]”, the “% INHIB 50 nm” value under setting [1] is on record as 37%. Besides, the “% INHIB 150 nm” value under setting [2] turned out to be 97%.

On to “308657 (antisense GCCTCAGTCTGCTTCGCGCC; 9-10-1 2'-MOE gapmer, phosphorothioate, chemistry not fully specified) [compound 308657]”, for which the “% INHIB 50 nm” value under setting [3] worked out at 61%. Further, the “% INHIB 150 nm” value under setting [4] was found to be 78%.

Consider “308658 (antisense AGGTTACCAGCCACATGCAG; 9-10-1 2'-MOE gapmer, phosphorothioate, chemistry not fully specified) [compound 308658]”, for which the “% inhibition of apolipoprotein B mRNA levels” value reads like this: (12.5 nM oligonucleotide) 29%; (37 nM oligonucleotide) 61%; (75 nM oligonucleotide) 73%; (150 nM oligonucleotide) 78%; (300 nM oligonucleotide) 90%. Moreover, the “% INHIB 50 nm” value under setting [1] amounted to 86%. In addition, under setting [2], the “% INHIB 150 nm” value came to 78%.

Take “308659 (antisense GCCTCAGTCTGCTTCGCACC; 9-10-1 2'-MOE gapmer, phosphorothioate, chemistry not fully specified) [compound 308659]”: the “% INHIB 50 nm” value under setting [1] amounted to 70%. The “% INHIB 150 nm” value under setting [2] was 93%.

With “308660 (antisense TGGTAGCCTCAGTCTGCTTC; 2-10-8 2'-MOE gapmer, phosphorothioate, chemistry not fully specified) [compound 308660]”, under setting [1], the “% INHIB 50 nm” value is 72%. For the same substance, the “% INHIB 150 nm” value under setting [2] is on record as 92%.

Regarding “308661 (antisense AGTCTGCTTCGCGCCTTCTG; 2-10-8 2'-MOE gapmer, phosphorothioate, chemistry not fully specified) [compound 308661]”, the “% INHIB 50 nm” value under setting [3] is 70%. Also, the “% INHIB 150 nm” value under setting [4] is given as 91%.

In the case of “308662 (antisense TGGTAGCCTCAGTCTGCTTC; 8-10-2 2'-MOE gapmer, phosphorothioate, chemistry not fully specified) [compound 308662]”, under setting [1], the “% INHIB 50 nm” value was 76%. Further, the “% INHIB 150 nm” value under setting [2] was 83%.

Turning to “308663 (antisense AGTCTGCTTCGCGCCTTCTG; 8-10-2 2'-MOE gapmer, phosphorothioate, chemistry not fully specified) [compound 308663]”, under setting [3], the “% INHIB 50 nm” value worked out at 44%. The “% INHIB 150 nm” value under setting [4] came to 84%.

Regarding “331022 (antisense GCCTCAGTCTGCTTCGCAC; sugars from the 5' end e5 d10 e4, all phosphorothioate, methylation of C not given here) [compound 331022]”, the “% Change in apolipoprotein B mRNA expression” value (from here on “% Change”) (10 nM, 24 hour (Table 41)) is −33%; the “% Change” value (50 nM, 24 hour (Table 41)) is recorded as −49%; the “% Change” value (150 nM, 24 hour (Table 41)) was −87%.

For the substance “332769 (antisense GCCTCAGTCTGCTTCGCACC; all 2'-MOE, all phosphorothioate, methylation of C not given here) [compound 332769]”, the “% Change” value reads like this: (50 nM, 24 hour (Table 40)) −11%; (150 nM, 24 hour (Table 40)) −14%.

In the case of “332770 (antisense GCCTCAGTCTTCTTCGCACC; sugars from the 5' end e5 d10 e5, all phosphorothioate, methylation of C not given here) [compound 332770]”, the “% Change” value (50 nM, 24 hour (Table 40)) is reported as “+7%” and the “% Change” value (150 nM, 24 hour (Table 40)) is given as −22%.

In the case of “332771 (antisense GCCTCAGTCTTATTCGCACC; sugars from the 5' end e5 d10 e5, all phosphorothioate, methylation of C not given here) [compound 332771]”, the “% Change” value is, setting by setting: (50 nM, 24 hour (Table 40)) “+37%”; (150 nM, 24 hour (Table 40)) “+37%”.

With “332772 (antisense GCCTCAGTATTATTCGCACC; sugars from the 5' end e5 d10 e5, all phosphorothioate, methylation of C not given here) [compound 332772]”, the “% Change” value reads like this: (50 nM, 24 hour (Table 40)) “+99%”; (150 nM, 24 hour (Table 40)) “+84%”.

For the substance “332773 (antisense GCCTCATTATTATTCGCACC; sugars from the 5' end e5 d10 e5, all phosphorothioate, methylation of C not given here) [compound 332773]”, the “% Change” value is given as “+75%” (50 nM, 24 hour (Table 40)) and “+80%” (150 nM, 24 hour (Table 40)).

For “332774 (antisense GCCTCATTATTATTAGCACC; sugars from the 5' end e5 d10 e5, all phosphorothioate, methylation of C not given here) [compound 332774]”, the “% Change” value runs as follows: (50 nM, 24 hour (Table 40)) “+62%”; (150 nM, 24 hour (Table 40)) “+66%”.

Take “332775 (antisense GCCTCATTATTATTATCACC; sugars from the 5' end e5 d10 e5, all phosphorothioate, methylation of C not given here) [compound 332775]”: the “% Change” value was −1% (50 nM, 24 hour (Table 40)) and “+10%” (150 nM, 24 hour (Table 40)).

On to “332776 (antisense GCCTAATTATTATTATCACC; sugars from the 5' end e5 d10 e5, all phosphorothioate, methylation of C not given here) [compound 332776]”, for which the “% Change” value is “+10%” (50 nM, 24 hour (Table 40)) and “+20%” (150 nM, 24 hour (Table 40)).

Take “332777 (antisense GCCTCAGTCTGCTTCGCA; sugars from the 5' end e5 d10 e3, all phosphorothioate, methylation of C not given here) [compound 332777]”: the “% Change” value by setting is: (10 nM, 24 hour (Table 41)) −27%; (50 nM, 24 hour (Table 41)) −53%; (150 nM, 24 hour (Table 41)) -80%.

On to “332778 (antisense GCCTCAGTCTGCTTC; sugars from the 5' end e5 d10, linkages s4 o1 s9 (s phosphorothioate, o phosphodiester), methylation of C not given here) [compound 332778]”, for which the “% Change” value is −11% (10 nM, 24 hour (Table 41)); −20% (50 nM, 24 hour (Table 41)); −58% (150 nM, 24 hour (Table 41)).

Consider “332780 (antisense CCTCAGTCTGCTTCGCAC; sugars from the 5' end e4 d10 e4, all phosphorothioate, methylation of C not given here) [compound 332780]”, for which the “% Change” value reads like this: (10 nM, 24 hour (Table 41)) −3%; (50 nM, 24 hour (Table 41)) −43%; (150 nM, 24 hour (Table 41)) −74%.

As to “332781 (antisense CTCAGTCTGCTTCGCA; sugars from the 5' end e3 d10 e3, all phosphorothioate, methylation of C not given here) [compound 332781]”, the “% Change” value by setting is: (10 nM, 24 hour (Table 41)) −9%; (50 nM, 24 hour (Table 41)) −35%; (150 nM, 24 hour (Table 41)) −60%.

For “332782 (antisense TCAGTCTGCTTCGC; all phosphorothioate, sugars by position and methylation of C not given here; 2'-MOE wings flank a DNA gap) [compound 332782]”, the “% Change” value is given as −16% (10 nM, 24 hour (Table 41)); −16% (50 nM, 24 hour (Table 41)); −69% (150 nM, 24 hour (Table 41)).

On to “332784 (antisense GCCTCAGTCT; linkages s4 o1 s4 (s phosphorothioate, o phosphodiester), sugars by position and methylation of C not given here; 2'-MOE wings flank a DNA gap) [compound 332784]”, for which the “% Change” value (10 nM, 24 hour (Table 41)) was “+12%”; the “% Change” value (50 nM, 24 hour (Table 41)) was −1%; the “% Change” value (150 nM, 24 hour (Table 41)) is reported as “+7%”.
